{"source": "patent US12171835B2", "about": "“Furan-aspidospermine dimer or pharmaceutically acceptable salt thereof, and preparation method, use and pharmaceutical composition” (Kunming Inst. of Botany, Chinese Acad. of Sciences, priority 2021, dated 2024)", "key": {"[1]": {"test_system": "bone marrow-derived macrophages (BMMs)", "experiment": "Activated immune test: ARG1 activity / M2 polarization in IL-4-stimulated BMMs", "format": "cell-based, mouse", "settings": "for inhibition of the expression of arginase induced by IL-4 in macrophages: BMMs pretreated with drug (1 μM), IL-4 stimulation 12 h, absorbance at 540 nm, FIG. 1", "experimental": "Activated immune test: bone marrow-derived macrophages (BMMs), as primary cells isolated from bone marrow and subjected to induced culture that can well reflect functions of the macrophages, are commonly used cells to study the functions of the macrophages. A mouse femur bone marrow was isolated and cultured in a medium containing an mCSF factor for 6-7 d to obtain mature BMMs; stimulation with IL-4 for 12 h can induce polarization of the BMMs to an immunosuppressive M2 type with high expression of ARG1; after the ARG1 protein was extracted, arginine hydrolysis was conducted in vitro, and color development was further conducted by reacting α-isonitrosopropiophenone with a hydrolyzate urea; an absorbance was measured at a wavelength of 540 nm as a marker of an ARG1 activity. A specific process was as follows: cells were pretreated with drugs (1 μM) (including the CPLD, CPLL, TBYA, MDK, HMD, compounds 1-3 and compounds 5-7); IL-4 stimulation was conducted for 12 h, followed by washing with PBS, and cells were lysed with a lysis buffer containing a protease inhibitor, and a total cell protein was obtained; after adding […] to 0.4 mM Mn^2, the total cell protein was heated at 55° C. for 10 min to fully activate an arginase ARG1. 0.5 mM arginine was added for incubation at 37° C. for 1 h to 2 h to fully hydrolyze the arginine. An acid solution containing sulfuric acid and phosphoric acid was added to stop the reaction, a 9% α-isonitrosopropiophenone ethanol solution was added, followed by heating at 95° C. for 15 min to 30 min to develop color."}, "[2]": {"test_system": "bone marrow-derived macrophages (BMMs)", "experiment": "Activated immune test: ARG1 activity / M2 polarization in IL-4-stimulated BMMs", "format": "cell-based, mouse", "settings": "FIG. 1C, FIG. 2"}, "[3]": {"test_system": "CD8 T cells", "experiment": "immunofluorescence staining of tumors", "format": "in vivo, mouse", "settings": "FIG. 5L", "from_the_text": "(§1) Further immunofluorescence staining experiments also find that the CPLD can increase the proportion of CD8 T cells and promote the expression of Granzyme B (L). Further, mice were continuously injected with anti-CD8 antibodies to delete CD8+ T cells in the mice, to construct a melanoma model, followed by investigation of an anti-tumor activity of the compounds."}, "[4]": {"test_system": "CD8+ T cells and other immune cells in the tumor", "experiment": "FACS analysis / intracellular staining of immune cells in the tumors", "format": "in vivo, mouse", "from_the_text": "Validation of improving and enhancing CD8^+ T cell function: through FACS analysis, the test results of compound 1 are shown in FIG. 3. […] In addition, the compound 1 is able to down-regulate a proportion of CD206^+ macrophages (FIG. 4).\nas §1"}, "[5]": {"test_system": "melanoma", "experiment": "CD8+ T cell-depleted melanoma model (anti-CD8 antibodies)", "format": "in vivo, mice", "settings": "FIG. 5M to N", "from_the_text": "as §1"}, "[6]": {"test_system": "tumor", "experiment": "nude mouse tumor model (CPLD)", "format": "in vivo", "settings": "FIG. 5M to N"}}}
{"compound": "19′-hydroxymelodinineK [HMD]", "values": [{"measurement": "inhibition of the expression of arginase induced by IL-4 in macrophages", "setting": "[1]", "result": "significantly inhibit"}, {"measurement": "inhibition of M2 polarization of the macrophages, concentration dependence", "setting": "[2]", "result": "inhibit M2 polarization of the macrophages in a concentration-dependent manner"}]}
{"compound": "CC[C@@]12C=CCN3CC[C@]4(C(=C(C(=O)OC)C1)Nc1cc5c(cc14)[C@H]1[C@@H](O5)[C@H](O)[C@]4(CC)CC(C(=O)OC)=C5Nc6c(cc(O)c(OC)c6OC)[C@@]56CCN1[C@H]46)[C@H]32", "note": "[CPLD, conophyllidine]", "values": [{"measurement": "expression of Granzyme B", "setting": "[3]", "result": "promote"}, {"measurement": "proportion of CD8 T cells", "setting": "[3]", "result": "increase"}, {"measurement": "effect on CD4 T cells", "setting": "[4]; FACS analysis", "result": "no significant effect"}, {"measurement": "effect on Treg cells (proportion)", "setting": "[4]; FACS analysis", "result": "no effect"}, {"measurement": "proportion of CD8+ T cells in the tumor", "setting": "[4]; FACS analysis", "result": "significantly increase"}, {"measurement": "expression of Granzyme B in CD8+ T cells", "setting": "[4]; intracellular staining", "result": "enhance"}, {"measurement": "expression of IFNγ in CD8+ T cells", "setting": "[4]; intracellular staining", "result": "enhance"}, {"measurement": "expression of TNFα in CD8+ T cells", "setting": "[4]; intracellular staining", "result": "enhance"}, {"measurement": "function of the CD8+ T cells", "setting": "[4]; intracellular staining", "result": "promote"}, {"measurement": "inhibition of the expression of arginase induced by IL-4 in macrophages", "setting": "[1]", "result": "significantly inhibit"}, {"measurement": "anti-tumor effect", "setting": "[5]", "result": "significantly reduced"}, {"measurement": "anti-tumor effect", "setting": "[6]", "result": "significantly reduced"}, {"measurement": "inhibition of M2 polarization of the macrophages, concentration dependence", "setting": "[2]", "result": "inhibit M2 polarization of the macrophages in a concentration-dependent manner"}]}
{"compound": "CC[C@@]12CC(C(=O)OC)=C3Nc4cc5c(cc4[C@@]34CCN(C[C@H]3O[C@H]31)[C@@H]24)[C@@H]1[C@H](O5)[C@@H](O)[C@@]2(CC)CC(C(=O)OC)=C3Nc4c(cc(O)c(OC)c4OC)[C@@]34CCN1[C@@H]24", "note": "[CPLL, conophylline]", "values": [{"measurement": "inhibition of the expression of arginase induced by IL-4 in macrophages", "setting": "[1]", "result": "significantly inhibit"}, {"measurement": "inhibition of M2 polarization of the macrophages, concentration dependence", "setting": "[2]", "result": "inhibit M2 polarization of the macrophages in a concentration-dependent manner"}]}
{"compound": "Ibogabisindole [reference compound]", "values": [{"measurement": "activity of inhibiting M2 polarization in macrophages", "setting": "[1]; comparison substances lacking the furan-aspidospermine dimer skeleton", "result": "neither the furan-ringed aspidospermine, Corynantheine, nor the furan-ringed aspidospermine, Ibogabisindole, have the activity"}]}
{"compound": "melodinine K [MDK]", "values": [{"measurement": "inhibition of the expression of arginase induced by IL-4 in macrophages", "setting": "[1]", "result": "significantly inhibit"}, {"measurement": "inhibition of M2 polarization of the macrophages, concentration dependence", "setting": "[2]", "result": "inhibit M2 polarization of the macrophages in a concentration-dependent manner"}]}
{"compound": "taberyunine A [TBYA]", "values": [{"measurement": "inhibition of the expression of arginase induced by IL-4 in macrophages", "setting": "[1]", "result": "significantly inhibit"}, {"measurement": "inhibition of M2 polarization of the macrophages, concentration dependence", "setting": "[2]", "result": "inhibit M2 polarization of the macrophages in a concentration-dependent manner"}]}
